Experimental data published in ChEMBL document CHEMBL5042526, “Design, Synthesis, and Biological Evaluation of Triazolone Derivatives as Potent PPARα/δ Dual Agonists for the Treatment of Nonalcoholic Steatohepatitis” (J Med Chem, 2022).
Calls of active or inactive are those of the source. The rule behind the calls is not given here.

Experiments:
[1] = target: T1, Nuclear receptor subfamily 1 group I member 2 (Homo sapiens, UniProt O75469); assay: Agonist activity at human PXR (138 to 434 residues) in Cos7 cells transfected with LBD-Gal4 and pGL435 Gal4 UAS Luc reporter plasmid at 10 uM by reporter gene assay; format: cell-based; conditions: cos7, 10 µM
T1 sequence (O75469 whole entry): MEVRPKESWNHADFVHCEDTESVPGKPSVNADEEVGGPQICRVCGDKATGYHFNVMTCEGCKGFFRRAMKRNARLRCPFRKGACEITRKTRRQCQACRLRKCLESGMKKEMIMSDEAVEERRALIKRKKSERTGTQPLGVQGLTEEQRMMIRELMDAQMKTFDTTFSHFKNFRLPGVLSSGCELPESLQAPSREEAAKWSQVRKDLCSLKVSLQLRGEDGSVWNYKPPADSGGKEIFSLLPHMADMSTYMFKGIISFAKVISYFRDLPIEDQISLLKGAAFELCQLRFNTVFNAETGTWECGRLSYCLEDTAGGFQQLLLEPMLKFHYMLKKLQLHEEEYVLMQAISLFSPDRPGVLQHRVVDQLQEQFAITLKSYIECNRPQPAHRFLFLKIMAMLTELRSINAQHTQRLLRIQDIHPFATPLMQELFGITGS

Mus musculus [2] = assay: In vivo agonist activity at PPARalpha/delta assessed as upregulation of -Ehhadh mRNA expression in C57BL/6Nifdc mouse liver at 10 mg/kg, po for 4 days; format: functional, organism-based; conditions: time 4.0 day
Mus musculus [3] = assay: Anti-NASH activity in HF-CDAA-induced nonalcoholic steatohepatitis C57BL/6JNifdc mouse model assessed as reversal of inflammatory infilitration 3 to 30 mg/kg, po by H and E staining method; format: functional, organism-based; conditions: dose 3-30 mg/kg
HepG2 [4] = assay: Agonist activity against PPARalpha/delta (unknown origin) assessed as upregulation of PDK4 mRNA expression in human HepG2 cells incubated for 12 hrs by RT-PCR analysis; format: cell-based; conditions: filed as agonist, dose 8-200 nM
Mus musculus [5] = assay: In vivo agonist activity against PPARalpha/delta assessed as upregulation of -Mlycd mRNA expression in C57BL/6Nifdc mouse skeletal muscle at 10 mg/kg, po for 4 days; format: functional, organism-based; conditions: time 4.0 day
Mus musculus [6] = assay: In vivo agonist activity at PPARalpha/delta assessed as upregulation of Lpin2 mRNA expression in C57BL/6Nifdc mouse liver at 10 mg/kg, po for 4 days; format: functional, organism-based; conditions: time 4.0 day
C2C12 [7] = assay: Agonist activity against PPARalpha/delta (unknown origin) assessed as upregulation of Pdk4 mRNA expression in […] cells at 8 nM incubated for 12 hrs by RT-PCR analysis; format: cell-based; conditions: filed as agonist
Mus musculus [8] = assay: In vivo agonist activity against PPARalpha/delta assessed as upregulation of Hilpda-mRNA expression in C57BL/6Nifdc mouse liver at 10 mg/kg, po for 4 days; format: functional, organism-based; conditions: time 4.0 day
Mus musculus [9] = assay: In vivo agonist activity against PPARalpha/delta assessed as upregulation of -Cidea mRNA expression in C57BL/6Nifdc mouse skeletal muscle at 10 mg/kg, po for 4 days; format: functional, organism-based; conditions: time 4.0 day
AML12 = assay: Agonist activity against PPARalpha/delta (unknown origin) assessed as upregulation of Pdk4 mRNA expression in […] cells incubated for 12 hrs by RT-PCR analysis; format: cell-based; conditions: filed as agonist, dose 8-200 nM
Mus musculus [10] = assay: In vivo agonist activity against PPARalpha/delta assessed as upregulation of -Retsat mRNA expression in C57BL/6Nifdc mouse skeletal muscle at 10 mg/kg, po for 4 days; format: functional, organism-based; conditions: time 4.0 day
Mus musculus [11] = assay: Anti-NASH activity in HF-CDAA-induced nonalcoholic steatohepatitis C57BL/6JNifdc mouse model assessed as reduction in steatosis by measuring hepatic total cholesterol level at 3 to 30 mg/kg, po; format: functional, organism-based; conditions: dose 3-30 mg/kg
Mus musculus [12] = assay: In vivo agonist activity at PPARalpha/delta assessed as upregulation of Lipa mRNA expression in C57BL/6Nifdc mouse liver at 10 mg/kg, po for 4 days; format: functional, organism-based; conditions: time 4.0 day
Mus musculus [13] = assay: In vivo agonist activity at PPARalpha/delta assessed as upregulation of Retsat-mRNA expression in C57BL/6Nifdc mouse liver at 10 mg/kg, po for 4 days; format: functional, organism-based; conditions: time 4.0 day
HepG2 [14] = assay: Agonist activity against PPARalpha/delta (unknown origin) assessed as upregulation of ACADVL mRNA expression in human HepG2 cells incubated for 12 hrs by RT-PCR analysis; format: cell-based; conditions: filed as agonist, dose 8-200 nM
Mus musculus [15] = assay: In vivo agonist activity at PPARalpha/delta assessed as upregulation of -Grhpr mRNA expression in C57BL/6Nifdc mouse liver at 10 mg/kg, po for 4 days; format: functional, organism-based; conditions: time 4.0 day
Mus musculus [16] = assay: In vivo agonist activity at PPARalpha/delta assessed as upregulation of Cpt2 mRNA expression in C57BL/6Nifdc mouse liver at 10 mg/kg, po for 4 days; format: functional, organism-based; conditions: time 4.0 day
Mus musculus [17] = assay: In vivo agonist activity against PPARalpha/delta assessed as upregulation of Me1 mRNA expression in C57BL/6Nifdc mouse liver at 10 mg/kg, po for 4 days; format: functional, organism-based; conditions: time 4.0 day
Mus musculus [18] = assay: Anti-fibrosis effect in HF-CDAA-induced nonalcoholic steatohepatitis C57BL/6JNifdc mouse model assessed as expression of Acta2 marker at 10 mg/kg, po after 20 hrs by Western blot analysis; format: functional, organism-based
C2C12 [19] = assay: Agonist activity against PPARalpha/delta (unknown origin) assessed as upregulation of Angpt14 mRNA expression in […] cells incubated for 12 hrs by RT-PCR analysis; format: cell-based; conditions: filed as agonist, dose 8-200 nM
Mus musculus [20] = assay: In vivo agonist activity against PPARalpha/delta assessed as upregulation of Pex11a mRNA expression in C57BL/6Nifdc mouse skeletal muscle at 10 mg/kg, po for 4 days; format: functional, organism-based; conditions: time 4.0 day
Mus musculus [21] = assay: In vivo agonist activity against PPARalpha/delta assessed as upregulation of Acs15 mRNA expression in C57BL/6Nifdc mouse liver at 10 mg/kg, po for 4 days; format: functional, organism-based; conditions: time 4.0 day
Mus musculus [22] = assay: In vivo agonist activity at PPARalpha/delta assessed as upregulation of Csnk1g2 mRNA expression in C57BL/6Nifdc mouse liver at 10 mg/kg, po for 4 days; format: functional, organism-based; conditions: time 4.0 day
Mus musculus [23] = assay: Anti-fibrosis effect in CCl4 induced liver fibrosis C57BL/6JNifdc mouse model by measuring serum triglyceride level at 3 to 30 mg/kg, po; format: functional, organism-based; conditions: dose 3-30 mg/kg
Mus musculus [24] = assay: Anti-fibrosis effect in CCl4 induced liver fibrosis C57BL/6JNifdc mouse model assessed as decrease in level of hydroxyproline level at 3 to 30 mg/kg, po after 20 hrs […]; format: functional, organism-based; conditions: dose 3-30 mg/kg
C2C12 [25] = assay: Agonist activity against PPARalpha/delta (unknown origin) assessed as upregulation of Cpt1A mRNA expression in […] cells at 8 nM incubated for 12 hrs by RT-PCR analysis; format: cell-based; conditions: filed as agonist
C2C12 [26] = assay: Agonist activity against PPARalpha/delta (unknown origin) assessed as upregulation of Cpt1A mRNA expression in […] cells incubated for 12 hrs by RT-PCR analysis; format: cell-based; conditions: filed as agonist, dose 8-200 nM

Cc1cc(Cn2ncn(-c3ccc(OC(F)(F)F)cc3)c2=O)cc(C)c1OC(C)(C)C(=O)O
Activity [1]: Not Active | Activity (Mus musculus [2]): Active | Activity (Mus musculus [3]): Active | Activity (HepG2 [4]): Dose-Dependent Effect | Activity (Mus musculus [5]): Active | Activity (Mus musculus [6]): Active | Activity (C2C12 [7]): Active | Activity (Mus musculus [8]): Active | Activity (Mus musculus [9]): Active | Activity (AML12): Dose-Dependent Effect | Activity (Mus musculus [10]): Active | Activity (Mus musculus [11]): Active | Activity (Mus musculus [12]): Active | Activity (Mus musculus [13]): Active | Activity (HepG2 [14]): Dose-Dependent Effect | Activity (Mus musculus [15]): Active | Activity (Mus musculus [16]): Active | Activity (Mus musculus [17]): Active | Activity (Mus musculus [18]): Active | Activity (C2C12 [19]): Dose-Dependent Effect | Activity (Mus musculus [20]): Active | Activity (Mus musculus [21]): Active | Activity (Mus musculus [22]): Active | Activity (Mus musculus [23]): Active | Activity (Mus musculus [24]): Active | Activity (C2C12 [25]): Active | Activity (C2C12 [26]): Dose-Dependent Effect
